In ChEMBL document CHEMBL1126797 (J Med Chem, 1993):

Columns and labels:
[1] = biological target: T1, DNA topoisomerase 1 (Homo sapiens, UniProt P11387); experiment: Inhibition of Topoisomerase I by cleavage complex formation in human HL-60 cells; type: cell-based
T1 sequence (P11387 whole entry): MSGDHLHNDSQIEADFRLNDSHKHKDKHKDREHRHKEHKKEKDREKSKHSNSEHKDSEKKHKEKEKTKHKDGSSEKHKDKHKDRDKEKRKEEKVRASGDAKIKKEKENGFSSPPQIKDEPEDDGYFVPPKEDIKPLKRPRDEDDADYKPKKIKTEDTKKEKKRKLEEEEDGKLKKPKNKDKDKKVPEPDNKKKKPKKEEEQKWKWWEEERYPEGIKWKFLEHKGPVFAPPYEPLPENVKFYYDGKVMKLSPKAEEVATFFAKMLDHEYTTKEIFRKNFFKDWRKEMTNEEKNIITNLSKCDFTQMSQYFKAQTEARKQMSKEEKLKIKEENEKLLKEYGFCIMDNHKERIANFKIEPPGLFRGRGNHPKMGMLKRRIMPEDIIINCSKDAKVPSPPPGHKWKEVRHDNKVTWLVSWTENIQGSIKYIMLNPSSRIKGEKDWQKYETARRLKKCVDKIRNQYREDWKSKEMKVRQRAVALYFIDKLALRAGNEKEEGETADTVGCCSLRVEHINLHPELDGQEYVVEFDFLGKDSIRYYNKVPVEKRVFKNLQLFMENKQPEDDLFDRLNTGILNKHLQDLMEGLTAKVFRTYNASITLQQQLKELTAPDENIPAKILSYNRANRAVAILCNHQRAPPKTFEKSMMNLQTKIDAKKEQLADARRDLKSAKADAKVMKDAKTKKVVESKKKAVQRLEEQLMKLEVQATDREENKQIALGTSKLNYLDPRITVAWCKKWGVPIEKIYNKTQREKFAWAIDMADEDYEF

[2] = tested on: Mus musculus; experiment: Relative survival in L1210 lymphoid leukemic mice after subcutaneous administration on days 1,4,6,8 at dose of 3 mg/kg; type: functional
[3] = Number of metastases in K1735-M2 murine melanoma cells after subcutaneous administration on days1,4,6,8 at dose of 3 mg/kg; type: functional, Mus musculus
[4] = biological target: T1, DNA topoisomerase 1; experiment: Inhibition of Topoisomerase I by cleavage complex formation in intact human HL-60 cells; type: cell-based
[5] = tested on: Mus musculus; experiment: Relative survival in RAW117-H10 cells implanted mice in comparison to control at dose of 3 mg/kg; type: functional
[6] = tested on: Mus musculus; experiment: Number of L1210 mice cured after i.v. drug dosing on hours 1 and 5; type: functional
[7] = Number of metastases in K1735-M2 murine melanoma cells after subcutaneous administration on days1,4,6,8 at dose of 6 mg/kg; type: functional, Mus musculus
[8] = tested on: L1210; experiment: Toxic dose in L1210 murine lymphoid leukemia at dose of 20 mg/kg; NT means not toxic; type: toxicity, organism-based; parameters: dose 20 mg/kg; details: mouse, in vivo
[9] = tested on: L1210; experiment: Log of initial tumor cell population minus log of tumor cell population at end of treatment after i.v. drug dosing on hours 1 and 5; type: functional, Mus musculus
[10] = tested on: L1210; experiment: Relative survival in L1210 murine lymphoid leukemia cells after subcutaneous administration on days1,4,6,8 at dose of 6 mg/kg; type: functional, Mus musculus
[11] = tested on: Mus musculus; experiment: Median survival time of treated/control animals x 100 after i.v. drug dosing on hours 1 and 5; type: functional
[12] = tested on: Mus musculus; experiment: Relative survival in RAW117-H10 cells implanted mice in comparison to control at dose of 6 mg/kg; type: functional
[13] = tested on: Mus musculus; experiment: Highest active dose in L1210 lymphoid leukemic mice after i.v. drug dosing on hours 1 and 5 at dose range of 2.85-10 mg/kg; type: functional
[14] = tested on: Mus musculus; experiment: Relative survival as percent of control survival time in L1210 murine lymphoid leukemic mice after sc administration on days1,4,6,8 at dose of 4 mg/kg; type: functional; details: route subcutaneous
[15] = tested on: HT-29; experiment: Tumor volume in HT-29 cells after subcutaneous administration on days 16,20,23,27,30,34,37,41,44,48 at dose of 4 mg/kg; type: functional, Homo sapiens
[16] = Number of metastases in K1735-M2 murine melanoma after subcutaneous administration on days1,4,6,8 at dose of 4 mg/kg; type: functional, Mus musculus
[17] = tested on: Mus musculus; experiment: Relative survival in RAW117-H10 cells implanted mice in comparison to control at dose of 4 mg/kg; type: functional
[18] = tested on: Mus musculus; experiment: Relative survival in L1210 lymphoid leukemic mice after subcutaneous administration on days 1,4,6,8 at dose of 4 mg/kg; type: functional
[19] = tested on: HT-29; experiment: Tumor volume in HT-29 cells after subcutaneous administration on days 16,20,23,27,30,34,37,41,44,48 at dose of 2.5 mg/kg; type: functional, Homo sapiens
[20] = Number of metastases in K1735-M2 murine melanoma cells after subcutaneous administration at dose of 2.5 mg/kg; type: functional, Mus musculus
[21] = species on record: Mus musculus; experiment: Toxic dose in L1210 lymphoid leukemic mice; type: toxicity, organism-based; details: in vivo
[22] = tested on: L1210; experiment: Log of initial tumor cell population minus log of tumor cell population at end of treatment in L1210 lymphoid leukemic mice; type: functional, Mus musculus
[23] = tested on: Mus musculus; experiment: Relative survival in RAW117-H10 cells implanted mice in comparison to control at dose of 2.5 mg/kg; type: functional
[24] = species on record: Mus musculus; experiment: Number of L1210 lymphoid leukemic mice cured out of […]; type: functional
[25] = species on record: Mus musculus; experiment: Percent median survival time of treated leukemic mice compared to control; type: functional
[26] = tested on: Mus musculus; experiment: Highest active dose in L1210 lymphoid leukemic mice at dose range of 0.6-5 mg/kg; type: functional
[27] = tested on: HT-29; experiment: Tumor volume in HT-29 cells after subcutaneous administration on days 16,20,23,27,30,34,37,41,44,48 at dose of 3 mg/kg; type: functional, Homo sapiens
[28] = tested on: Mus musculus; experiment: Highest active dose in L1210 lymphoid leukemic mice at dose range of 2.37-8 mg/kg; type: functional

Compound | IC50 [1] [nM] | other results
CCC1(O)C(=O)OCc2c1cc1n(c2=O)Cc2cc3c([N+](=O)[O-])c4c(cc3nc2-1)OCO4 (racemic) | 220 | –
CC[C@@](O)(C(=O)O)c1cc2n(c(=O)c1CO)Cc1cc3ccccc3nc1-2 | 12000 | –
CC[C@@]1(O)C(=O)OCc2c1cc1n(c2=O)Cc2cc3c([N+](=O)[O-])c4c(cc3nc2-1)OCO4 | 150 | –
CCC1(O)C(=O)OCc2c1cc1n(c2=O)Cc2cc3c(N)c(Br)cc(Br)c3nc2-1 (racemic) | > 30000 | –
CCC1(O)C(=O)OCc2c1cc1n(c2=O)Cc2cccnc2-1 (racemic) | > 30000 | –
CCC1(O)C(=O)OCc2c1cc1n(c2=O)Cc2cc3c(CN4CC4)c(O)ccc3nc2-1 (centres undefined) | 1100 | –
CC[C@@]1(O)C(=O)OCc2c1cc1n(c2=O)Cc2cc3cc(O)ccc3nc2-1 [HYDROXYCAMPTOTHECIN] | 110 | –
O=C1OCc2c(cc3n(c2=O)Cc2cc4ccccc4nc2-3)C1(O)CCO (racemic) | 9600 | –
CCC1(O)C(=O)OCc2c1cc1n(c2=O)Cc2cc3cc(C(=O)O)ccc3nc2-1 (centres undefined) | 1000 | –
CCC1(O)C(=O)OCc2c1cc1n(c2=O)Cc2cc3c(Cl)cccc3nc2-1 (racemic) | 190 | –
CCC1(O)C(=O)OCc2c1cc1n(c2=O)Cc2cc3c(N)c4c(cc3nc2-1)OCO4 (racemic) | 76 | T/C [2]: 3; Control [3]: 25%; IC50 [4]: 69 nM; T/C [5]: 1.6
CCC(O)(C(=O)[O-])c1cc2n(c(=O)c1CO)Cc1cc3cc4c(cc3nc1-2)OCO4.[Na+] (racemic) | 550 | Cures [6]: 0; Control [7]: 4%; Toxic dose [8]: Non-toxic; KE [9]: 4.79; T/C [10]: 2.13; T/C [11]: 157%; T/C [12]: 1.32; Highest active dose [13]: 10 mg/kg
CCC1(O)C(=O)OCc2c1cc1n(c2=O)Cc2cc3cc(Br)ccc3nc2-1 (centres undefined) | 130 | –
CC[C@@](O)(C(=O)[O-])c1cc2n(c(=O)c1CO)Cc1cc3cc4c(cc3nc1-2)OCO4.[Na+] | 840 | T/C [14]: 2.13; Control [15]: 40%; Control [16]: 15%; T/C [17]: 1.36
CCC1(O)C(=O)OCc2c1cc1n(c2=O)Cc2cc3c(Cl)c4c(cc3nc2-1)OCO4 (centres undefined) | 61 | –
CC[C@@]1(O)C(=O)OCc2c1cc1n(c2=O)Cc2cc3c(N)cccc3nc2-1 [9-AMINOCAMPTOTHECIN] | 110 | T/C [18]: 2.44; Control [19]: 25%; Control [20]: 73%; Toxic dose [21]: 10 mg/kg; KE [22]: 5.97; T/C [23]: 1.15; Cures [24]: 3; T/C [25]: 361%; Highest active dose [26]: 0.6 mg/kg
CCC(O)(C(=O)O)c1cc2n(c(=O)c1CO)Cc1cc3c(N)cccc3nc1-2 (racemic) | 13000 | –
CC[C@@]1(O)C(=O)OCc2c1cc1n(c2=O)Cc2cc3cc4c(cc3nc2-1)OCO4 | – | T/C [2]: 1.49; Control [3]: 9%; T/C [5]: 1.33; Control [27]: 18%
CCC1(O)C(=O)OCc2c1cc1n(c2=O)Cc2cc3cc4c(cc3nc2-1)OCCO4 (racemic) | 470 | –
CC[C@@]1(O)C(=O)OCc2c1cc1n(c2=O)Cc2cc3cc(C#N)ccc3nc2-1 | 1900 | –

Compound | IC50 [1] [nM] | other results
CC[C@@]1(O)C(=O)OCc2c1cc1n(c2=O)Cc2cc3cc([N+](=O)[O-])ccc3nc2-1 | 640 | –
CCC1(O)C(=O)OCc2c1cc1n(c2=O)Cc2cc3c(N)cccc3nc2-1 (racemic) [RS-9-Aminocamptothecin] | 440 | IC50 [4]: 840 nM
CCC(O)(C(=O)O)c1cc2n(c(=O)c1CO)Cc1cc3ccccc3nc1-2 (racemic) | 2000 | –
CCC1(O)C(=O)OCc2c1cc1n(c2=O)Cc2cc3c(NC(=O)CN)c4c(cc3nc2-1)OCO4 (racemic) | 260 | IC50 [4]: > 30000 nM
CCC1(O)C(=O)OCc2c1cc1n(c2=O)Cc2cc3cc(OC(=O)N4CCC(N5CCCCC5)CC4)ccc3nc2-1 (centres undefined) | 21000 | –
CC1(O)C(=O)OCc2c1cc1n(c2=O)Cc2cc3ccccc3nc2-1 (racemic) | 4000 | –
CC[C@]1(O)C(=O)OCc2c1cc1n(c2=O)Cc2cc3c(N)c4c(cc3nc2-1)OCO4 | > 30000 | –
CCC1(O)C(=O)OCc2c1cc1n(c2=O)Cc2cc3c(OC)cccc3nc2-1 (racemic) | 1600 | –
CC[C@@]1(O)C(=O)OCc2c1cc1n(c2=O)Cc2cc3c(O)cccc3nc2-1 | 870 | –
CCC1(O)C(=O)OCc2c1cc1n(c2=O)Cc2cc3cc(F)ccc3nc2-1 (centres undefined) | 370 | –
CC[C@@]1(O)C(=O)OCc2c1cc1n(c2=O)Cc2cc3c(C)cccc3nc2-1 | 38 | Toxic dose [21]: 12 mg/kg; KE [22]: 5.6; Cures [24]: 4; T/C [25]: 274%; Highest active dose [28]: 8 mg/kg
CCC1(O)C(=O)OCc2c1cc1n(c2=O)Cc2cc3c4c(ccc3nc2-1)OCO4 (racemic) | 3800 | –
CC[C@](O)(C(=O)O)c1cc2n(c(=O)c1CO)Cc1cc3c(N)c4c(cc3nc1-2)OCO4 | > 30000 | –
CCC1(O)C(=O)OCc2c1cc1n(c2=O)Cc2cc3cc(OC(=O)N4CCN(C)CC4)ccc3nc2-1 (centres undefined) | 4400 | –
CC[C@@]1(O)C(=O)OCc2c1cc1n(c2=O)Cc2cc3cc(C)ccc3nc2-1 | 300 | –
O=C1OCc2c(cc3n(c2=O)Cc2cc4ccccc4nc2-3)C1(O)CCBr (racemic) | 3100 | –
CCC1(O)C(=O)OCc2c1cc1n(c2=O)Cc2cc3c(F)cccc3nc2-1 (centres undefined) | 160 | –
CC[C@@]1(O)C(=O)OCc2c1cc1n(c2=O)Cc2cc3cc(Cl)ccc3nc2-1 | 140 | –
CCC1(O)C(=O)OCc2c1cc1n(c2=O)Cc2cc3c(Cl)c(Cl)ccc3nc2-1 (centres undefined) | 110 | –
